Where two headings read alike, the source gives them in different places.
Key:
[1] = target: GSK3b (GST-full length GSK3b) (Homo sapiens (Human), UniProt P49841); experiment: GSK3b TR-FRET kinase assay; assay type: biochemical
In short: (§1)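 In this time-resolved FRET format, kinase reactions contained 200 nM biotinylated, S645-phosphorylated glycogen synthase 631-650 peptide and either isoform-specific ATP (2 μM GSK3b, 4 μM GSK3α) or 1 mM ATP. They were quenched with EDTA after 100 min at ambient temperature. Inhibition curves gave IC50 values.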

[2] = target: GSK3α (GST-full length GSK3α) (Homo sapiens (Human), UniProt P49840); experiment: GSK3α TR-FRET kinase assay; assay type: biochemical
GSK3α (GST-full length GSK3α), sequence (P49840 whole entry): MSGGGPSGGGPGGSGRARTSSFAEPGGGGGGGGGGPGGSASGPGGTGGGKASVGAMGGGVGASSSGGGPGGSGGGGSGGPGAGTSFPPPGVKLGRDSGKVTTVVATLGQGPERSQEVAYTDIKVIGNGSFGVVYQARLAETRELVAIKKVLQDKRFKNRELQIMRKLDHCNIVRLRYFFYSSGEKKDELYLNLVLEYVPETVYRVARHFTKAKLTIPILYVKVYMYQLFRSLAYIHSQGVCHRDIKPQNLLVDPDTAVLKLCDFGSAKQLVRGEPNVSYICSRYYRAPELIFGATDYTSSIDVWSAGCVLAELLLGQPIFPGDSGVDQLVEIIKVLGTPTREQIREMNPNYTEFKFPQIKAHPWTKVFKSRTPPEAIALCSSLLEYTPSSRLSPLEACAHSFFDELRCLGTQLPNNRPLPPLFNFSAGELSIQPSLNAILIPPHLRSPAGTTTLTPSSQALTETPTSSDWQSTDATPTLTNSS
In short: as §1

[3] = 1 nM GSK3b, 2 μM ATP, 30 minute preincubation, read-out: GSK3-B TR-FRET BIOCHEMICAL (TR-FRET), IC50
[4] = 1 nM GSK3α, 4 μM ATP, 30 minute preincubation, read-out: GSK3-A TR-FRET BIOCHEMICAL (TR-FRET), IC50
[5] = 1 nM GSK3b, 2 μM ATP, 30 minute preincubation, Table 16, read-out: GSK3-B TR-FRET BIOCHEMICAL (TR-FRET)
[6] = 1 nM GSK3α, 4 μM ATP, 30 minute preincubation, Table 16, read-out: GSK3-A TR-FRET BIOCHEMICAL (TR-FRET)
[7] = read-out: GSK3-B (TR-FRET 1 mM ATP), GMean, IC50, 1 mM ATP, geometric mean
[8] = read-out: GSK3-A (TR-FRET 1 mM ATP), GMean, IC50, 1 mM ATP, geometric mean
[9] = GSK3-B (TR-FRET 1 mM ATP), GMean, IC50, 1 mM ATP, geometric mean
[10] = GSK3-A (TR-FRET 1 mM ATP), GMean, IC50, 1 mM ATP, geometric mean

GSK3b (GST-full length GSK3b), sequence (P49841 whole entry, canonical isoform): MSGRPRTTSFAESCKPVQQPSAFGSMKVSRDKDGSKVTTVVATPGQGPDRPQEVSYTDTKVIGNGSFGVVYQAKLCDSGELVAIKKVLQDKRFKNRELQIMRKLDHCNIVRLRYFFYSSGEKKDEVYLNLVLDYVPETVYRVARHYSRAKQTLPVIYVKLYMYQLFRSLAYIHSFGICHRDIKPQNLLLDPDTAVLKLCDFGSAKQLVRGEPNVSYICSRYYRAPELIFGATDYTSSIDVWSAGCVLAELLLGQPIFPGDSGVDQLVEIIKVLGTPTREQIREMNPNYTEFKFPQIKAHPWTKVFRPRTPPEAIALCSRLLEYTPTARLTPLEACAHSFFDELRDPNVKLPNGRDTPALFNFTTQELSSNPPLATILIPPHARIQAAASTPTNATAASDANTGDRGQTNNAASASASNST

| Structure (SMILES) | IC50 [1, 5] [nM] | IC50 [2, 6] [nM] | further results |
| --- | --- | --- | --- |
| CCC1(c2cccc(N3CCOCC3)c2)C2=C(CC(C)(C)NC2=O)Nc2n[nH]cc21 (centres unmarked) [Compound 945602] |  |  | IC50 [1, 3]: > 5000 nM; IC50 [2, 4]: 1000 to 5000 nM |
| CCC1(c2cccc(-c3cnn4c3CCCC4)c2)C2=C(CC(C)(C)NC2=O)Nc2n[nH]cc21 (centres unmarked) [Compound 945603] |  |  | IC50 [1, 3]: 100 to 1000 nM; IC50 [2, 4]: ≤ 100 nM |
| CC[C@]1(c2cccc(S(C)(=O)=O)c2)C2=C(CC(C)(C)NC2=O)Nc2n[nH]cc21 [Compound 945604] |  |  | IC50 [1, 3]: ≤ 100 nM; IC50 [2, 4]: ≤ 100 nM |
| CC[C@]1(c2cccc(-c3cncn3C)c2)C2=C(CC(C)(C)CC2=O)Nc2n[nH]cc21 [Compound 945605] | ≤ 100 | ≤ 100 |  |
| CCC1(c2cccc(-c3ccnc4c3CCC4)c2)C2=C(CC(C)(C)CC2=O)Nc2n[nH]cc21 (centres unmarked) [Compound 945606] | 100 to 1000 | ≤ 100 | IC50 [1, 7]: 1000 to 5000 nM; IC50 [2, 8]: 100 to 1000 nM |
| CC[C@]1(c2cccc(-c3cnn(C)c3C)c2)C2=C(CC(C)(C)NC2=O)Nc2n[nH]cc21 [Compound 945608] |  |  | IC50 [1, 3]: 100 to 1000 nM; IC50 [2, 4]: ≤ 100 nM |
| CC[C@]1(c2cccc(N(C)c3cc(C)cc(C)n3)c2)C2=C(CC(C)(C)CC2=O)Nc2n[nH]cc21 [Compound 945610] | 100 to 1000 | ≤ 100 |  |
| CC[C@]1(c2cccc(-c3cnn(C)c3)c2)C2=C(CC(C)(C)NC2=O)Nc2n[nH]c(C)c21 [Compound 945611] |  |  | IC50 [1, 3]: > 5000 nM; IC50 [2, 4]: > 5000 nM |
| CC[C@]1(c2cccc(-c3cnc(C)n3C)c2)C2=C(CC(C)(C)CC2=O)Nc2n[nH]cc21 [Compound 945612] | > 5000 | 1000 to 5000 |  |
| CC[C@@]1(c2cccc(-c3cnc(C)n3C)c2)C2=C(CC(C)(C)CC2=O)Nc2n[nH]cc21 [Compound 945613] | ≤ 100 | ≤ 100 | IC50 [1, 7]: 1000 to 5000 nM; IC50 [2, 8]: 100 to 1000 nM |
| CCC1(c2cccc(-c3cnn(C)c3)c2)C2=C(CC(C)(C)NC2=O)Nc2n[nH]c(C)c21 (centres unmarked) [Compound 945614] |  |  | IC50 [1, 3]: 100 to 1000 nM; IC50 [1, 7]: 1000 to 5000 nM; IC50 [2, 4]: ≤ 100 nM; IC50 [2, 8]: 100 to 1000 nM |
| CC[C@@]1(c2cccc(-c3cnn(C)c3C)c2)C2=C(CC(C)(C)NC2=O)Nc2n[nH]cc21 [Compound 945617] |  |  | IC50 [1, 3]: > 5000 nM; IC50 [2, 4]: 1000 to 5000 nM |
| CC[C@@]1(c2cccc(-c3ccnc4c3CCC4)c2)C2=C(CC(C)(C)CC2=O)Nc2n[nH]cc21 [Compound 945619] | > 5000 | 1000 to 5000 |  |
| CCC1(c2cccc(-c3cncn3C)c2)C2=C(CC(C)(C)CC2=O)Nc2n[nH]cc21 (centres unmarked) [Compound 945620] | 1000 to 5000 | 100 to 1000 |  |
| CC[C@@]1(c2cccc(C(F)(F)F)c2)C2=C(CCN(C(C)(C)C)C2=O)Nc2n[nH]cc21 [Compound 945633] |  |  | IC50 [1, 3]: > 5000 nM; IC50 [2, 4]: > 5000 nM |
| CC[C@]1(c2cccc(C(F)(F)F)c2)C2=C(CCN(C(C)(C)C)C2=O)Nc2n[nH]cc21 [Compound 945634] |  |  | IC50 [1, 3]: > 5000 nM; IC50 [2, 4]: 1000 to 5000 nM |
| CCC1(c2cccc(C(F)(F)F)c2)C2=C(CCN(c3cccnc3)C2=O)Nc2n[nH]cc21 (centres unmarked) [Compound 945637] |  |  | IC50 [1, 3]: 100 to 1000 nM; IC50 [2, 4]: ≤ 100 nM |
| CC1(C)CC(=O)C2=C(C1)Nc1n[nH]cc1C21CCN(S(=O)(=O)c2ccccc2OC(F)F)CC1 [Compound 945668] |  |  | IC50 [1, 3]: ≤ 100 nM; IC50 [1, 9]: 100 to 1000 nM; IC50 [2, 4]: ≤ 100 nM; IC50 [2, 10]: ≤ 100 nM |
| CCC1(c2cccc(-c3c(C)cncc3C)c2)C2=C(CC(C)(C)CC2=O)Nc2n[nH]cc21 (centres unmarked) [Compound 945703] | ≤ 100 | ≤ 100 |  |
| CCC1(c2cccc(-c3c(F)cncc3OC)c2)C2=C(CC(C)(C)CC2=O)Nc2n[nH]cc21 (centres unmarked) [Compound 945704] | ≤ 100 | ≤ 100 | IC50 [1, 7]: 100 to 1000 nM; IC50 [2, 8]: ≤ 100 nM |
| CCC1(c2cccc(C(F)F)c2)C2=C(CC(C)(C)CC2=O)Nc2n[nH]c(C(F)(F)F)c21 (centres unmarked) [Compound 945710] | ≤ 100 | ≤ 100 | IC50 [1, 7]: ≤ 100 nM; IC50 [2, 8]: ≤ 100 nM |
| Cn1ccc(S(=O)(=O)N2CC[C@]3(C2)C2=C(CC(C)(C)CC2=O)Nc2n[nH]cc23)n1 [Compound 945712] |  |  | IC50 [1, 3]: ≤ 100 nM; IC50 [1, 9]: 100 to 1000 nM; IC50 [2, 4]: ≤ 100 nM; IC50 [2, 10]: ≤ 100 nM |
| CCC1(c2cccc(S(=O)(=O)C3CC3)c2)C2=C(CC(C)(C)CC2=O)Nc2n[nH]c(C(F)(F)F)c21 (centres unmarked) [Compound 945713] | ≤ 100 | ≤ 100 | IC50 [1, 7]: ≤ 100 nM; IC50 [2, 8]: ≤ 100 nM |

Second part, led by results:

| IC50 [1, 5] [nM] | IC50 [2, 6] [nM] | Structure (SMILES) | further results |
| --- | --- | --- | --- |
| 100 to 1000 | ≤ 100 | CC[C@]1(c2cccc(-c3cnc4n3CCCC4)c2)C2=C(CC(C)(C)CC2=O)Nc2n[nH]cc21 [Compound 945607] | IC50 [1, 7]: > 5000 nM; IC50 [2, 8]: 1000 to 5000 nM |
| ≤ 100 | ≤ 100 | CC1(C)CC(=O)C2=C(C1)Nc1n[nH]cc1C21CCN(S(=O)(=O)c2ccccc2Cl)CC1 [Compound 945655] |  |
| ≤ 100 | ≤ 100 | COc1cccc(S(=O)(=O)N2CCC3(CC2)C2=C(CC(C)(C)CC2=O)Nc2n[nH]cc23)c1F [Compound 945656] | IC50 [1, 9]: 100 to 1000 nM; IC50 [2, 10]: ≤ 100 nM |
| 100 to 1000 | ≤ 100 | CC1(C)CC(=O)C2=C(C1)Nc1n[nH]cc1C21CCN(S(=O)(=O)c2ccccc2C(F)F)CC1 [Compound 945657] | IC50 [1, 9]: 1000 to 5000 nM; IC50 [2, 10]: 100 to 1000 nM |
| 1000 to 5000 | 100 to 1000 | Cc1cnn(C)c1S(=O)(=O)N1CCC2(CC1)C1=C(CC(C)(C)CC1=O)Nc1n[nH]cc12 [Compound 945658] |  |
| ≤ 100 | ≤ 100 | CN(C)C(=O)c1ccc(S(=O)(=O)N2CCC3(CC2)C2=C(CC(C)(C)CC2=O)Nc2n[nH]cc23)cc1 [Compound 945659] |  |
| ≤ 100 | ≤ 100 | CC1(C)CC(=O)C2=C(C1)Nc1n[nH]cc1C21CCN(S(=O)(=O)c2ccc(Cl)c(Cl)c2)CC1 [Compound 945660] |  |
| ≤ 100 | ≤ 100 | CC1(C)CC(=O)C2=C(C1)Nc1n[nH]cc1C21CCN(S(=O)(=O)c2ccc(Cl)cc2)CC1 [Compound 945661] |  |
| 100 to 1000 | ≤ 100 | COc1ccc(S(=O)(=O)N2CCC3(CC2)C2=C(CC(C)(C)CC2=O)Nc2n[nH]cc23)c(C)c1C [Compound 945662] |  |
| ≤ 100 | ≤ 100 | CC(C)c1nc(S(=O)(=O)N2CCC3(CC2)C2=C(CC(C)(C)CC2=O)Nc2n[nH]cc23)cn1C [Compound 945663] |  |
| ≤ 100 | ≤ 100 | CCn1nccc1S(=O)(=O)N1CCC2(CC1)C1=C(CC(C)(C)CC1=O)Nc1n[nH]cc12 [Compound 945664] |  |
| ≤ 100 | ≤ 100 | COc1ccc(F)c(S(=O)(=O)N2CCC3(CC2)C2=C(CC(C)(C)CC2=O)Nc2n[nH]cc23)c1 [Compound 945665] |  |
| ≤ 100 | ≤ 100 | COc1ccc(S(=O)(=O)N2CCC3(CC2)C2=C(CC(C)(C)CC2=O)Nc2n[nH]cc23)cn1 [Compound 945666] |  |
| 100 to 1000 | ≤ 100 | CC1(C)CC(=O)C2=C(C1)Nc1n[nH]cc1C21CCN(S(=O)(=O)c2ccccc2C(F)(F)F)CC1 [Compound 945667] |  |
| ≤ 100 | ≤ 100 | COc1cc(S(=O)(=O)N2CCC3(CC2)C2=C(CC(C)(C)CC2=O)Nc2n[nH]cc23)ccc1Cl [Compound 945669] |  |
| ≤ 100 | ≤ 100 | CCOc1ccc(S(=O)(=O)N2CCC3(CC2)C2=C(CC(C)(C)CC2=O)Nc2n[nH]cc23)cc1 [Compound 945670] | IC50 [1, 9]: 1000 to 5000 nM; IC50 [2, 10]: 100 to 1000 nM |
| ≤ 100 | ≤ 100 | CCn1ccc(S(=O)(=O)N2CCC3(CC2)C2=C(CC(C)(C)CC2=O)Nc2n[nH]cc23)n1 [Compound 945671] |  |
| ≤ 100 | ≤ 100 | Cc1ccc(S(=O)(=O)N2CCC3(CC2)C2=C(CC(C)(C)CC2=O)Nc2n[nH]cc23)s1 [Compound 945672] | IC50 [1, 9]: 100 to 1000 nM; IC50 [2, 10]: 100 to 1000 nM |
| ≤ 100 | ≤ 100 | CC(C)Oc1ccc(S(=O)(=O)N2CCC3(CC2)C2=C(CC(C)(C)CC2=O)Nc2n[nH]cc23)cc1 [Compound 945673] |  |
| 100 to 1000 | ≤ 100 | Cc1cc(S(=O)(=O)N2CCC3(CC2)C2=C(CC(C)(C)CC2=O)Nc2n[nH]cc23)c(C)s1 [Compound 945674] |  |
| ≤ 100 | ≤ 100 | CC(C)Oc1ccc(S(=O)(=O)N2CCC3(CC2)C2=C(CC(C)(C)CC2=O)Nc2n[nH]cc23)cn1 [Compound 945676] |  |
| 100 to 1000 | ≤ 100 | CC1(C)CC(=O)C2=C(C1)Nc1n[nH]cc1C21CCN(S(=O)(=O)c2cnn(C(C)(C)C)c2)CC1 [Compound 945677] |  |
| 100 to 1000 | ≤ 100 | Cc1cc(S(=O)(=O)N2CCC3(CC2)C2=C(CC(C)(C)CC2=O)Nc2n[nH]cc23)ccc1OC(C)C [Compound 945678] |  |
| 1000 to 5000 | 100 to 1000 | CCn1nc(C)c(S(=O)(=O)N2CCC3(CC2)C2=C(CC(C)(C)CC2=O)Nc2n[nH]cc23)c1C [Compound 945679] |  |
| ≤ 100 | ≤ 100 | COc1ccc(S(=O)(=O)N2CCC3(CC2)C2=C(CC(C)(C)CC2=O)Nc2n[nH]cc23)cc1C [Compound 945680] |  |
